Calls of active or inactive are those of the source. The calls are words filed in the database; no cut-off is given here.
Experiments:
[1] = Inhibition of Wnt/beta-catenin signalling in Wnt3a stimulated human HEK293 cells assessed as reduction in luciferase activity incubated for 24 hrs by TOPFlash luciferase reporter assay; type: cell-based; settings: HEK293, 24 h
Frizzled-7 = Frizzled-7 (Homo sapiens, UniProt O75084); assay: Antagonist activity at his-tagged FZD7 transmembrane domain (unknown origin) assessed as dissociation constant by SPR analysis
[2] = biological target: Protein smoothened (Homo sapiens) (UniProt Q99835); assay: Binding affinity to SMO (unknown origin) assessed as dissociation constant by SPR analysis
Chain of Protein smoothened (Homo sapiens) (Q99835 whole entry): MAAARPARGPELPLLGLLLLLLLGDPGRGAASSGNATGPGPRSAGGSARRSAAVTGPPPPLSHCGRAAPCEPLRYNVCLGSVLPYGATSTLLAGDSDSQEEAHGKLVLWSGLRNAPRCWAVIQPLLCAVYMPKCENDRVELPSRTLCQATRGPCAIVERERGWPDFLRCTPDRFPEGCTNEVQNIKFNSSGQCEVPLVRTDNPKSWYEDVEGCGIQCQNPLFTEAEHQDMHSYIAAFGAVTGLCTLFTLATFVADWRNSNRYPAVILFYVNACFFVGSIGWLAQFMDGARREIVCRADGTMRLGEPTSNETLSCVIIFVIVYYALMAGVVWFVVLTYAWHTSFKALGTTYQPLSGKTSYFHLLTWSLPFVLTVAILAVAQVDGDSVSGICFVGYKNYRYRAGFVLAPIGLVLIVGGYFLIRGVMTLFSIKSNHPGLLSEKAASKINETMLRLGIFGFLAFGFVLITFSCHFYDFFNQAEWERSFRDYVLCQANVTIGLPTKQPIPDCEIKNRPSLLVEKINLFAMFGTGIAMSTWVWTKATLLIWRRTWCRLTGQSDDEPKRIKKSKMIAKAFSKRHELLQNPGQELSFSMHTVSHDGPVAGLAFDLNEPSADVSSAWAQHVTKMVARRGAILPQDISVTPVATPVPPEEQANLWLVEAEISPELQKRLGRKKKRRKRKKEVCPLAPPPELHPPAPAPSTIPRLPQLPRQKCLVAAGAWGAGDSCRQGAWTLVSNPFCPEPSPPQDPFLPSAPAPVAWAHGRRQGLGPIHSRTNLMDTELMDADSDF

| IC50 [1] | Kd (Frizzled-7) | Activity [2] | SMILES |
| --- | --- | --- | --- |
| 230 nM | – | – | Cc1ccc(C(=O)Nc2ccc(SCC(=O)Nc3nc(-c4ccccc4)cs3)cc2)cc1 |
| 40 nM | – | – | Cc1ccc(C(=O)Nc2ccc(SCC(=O)Nc3nc(-c4ccccc4)cs3)cc2)c(C)c1 |
| 1280 nM | 160 nM | inactive | O=C(CSc1ccc(NC(=O)c2ccc(F)cc2)cc1)Nc1nc(-c2ccccc2)cs1 |

Reference: ChEMBL document CHEMBL5321296, “Structure-Based Ligand Discovery Targeting the Transmembrane Domain of Frizzled Receptor FZD7” (J Med Chem, 2023)
